These results are taken from article PMC10764104, “Discovery of Molecular Glue Degraders via Isogenic Morphological Profiling” (ACS Chemical Biology, 2023).

In this experiment the target is T1, recombinant DDB1-CRBN (Homo sapiens, UniProt Q96SW2).
T1 construct: His; made in house; host or cells: High Five insect cells (baculovirus made and propagated in SF9 cells)
Put plainly: Fluorescence polarization-based competition assay for CRBN binding. Conditions: 200 nM CRBN-DDB1, 20 nM pomalidomide-fluorescein tracer 16, triplicates; read-out: FP_CRBN_binding: CRBN binding affinity, EC50. The method, then:
Prior to screening the compound library in the isogenic CPA, we assessed their CRBN binding affinities using a fluorescence-polarization-based competition assay with recombinant DDB1-CRBN and the fluorescent tracer 16 (Figure S2). […] We also assessed the cytotoxicity of the CRBN binders in RKO wild-type (WT) cells to determine the appropriate treatment concentration. […]
Fluorescence Polarization‐based competition assay
Fluorescence Polarization assays were performed in 384‐well, Low Volume, Black, Round Bottom, Polystyrene Nonbinding surface Microplates (Corning, #4514). The test compounds were incubated with 200 nM CRBN‐DDB1 and 20 nM Pomalidomide‐fluorescein tracer 16 in 50 mM Tris‐HCl pH 7.5, 200 mM NaCl, 1 mM DTT, 0.02% Triton X‐ 100, and 0.1 µg/µL Bovine Serum Albumin (Sigma Aldrich, #A7030) in a total volume of 25 µL. Fluorescence polarization values were determined with a PerkinElmer Envision reader with FITC FP dual mirror and FITC FP 480 excitation filter and FITC FP 535 emission filters. Fluorescence polarization values of a 10x serial dilution (10 nM to 100 µM) of the test compounds were determined in triplicates. EC50 values were calculated with GraphPad Prism software (version 10.0.2) with a non‐linear fit function (4PL sigmoidal curve fit) adjusting the bottom constrain to the FP value of free tracer. […]
On the technique in general: Fluorescence polarisation rises when a labelled molecule tumbles more slowly, as on binding a larger partner.
Regarding `C[C@@H](O)CN(C)S(=O)(=O)Oc1cccc(Nc2ccc3c(c2)C(=O)N(C2CCC(=O)NC2=O)C3=O)c1` (stereo partly drawn) [FL1-1], the EC50 was found to be 321 nM.

As for `CC(C)(O)C1CCN(S(=O)(=O)Oc2cccc(Nc3ccc4c(c3)C(=O)N(C3CCC(=O)NC3=O)C4=O)c2)C1` (stereo not drawn) [FL1-4], the EC50 worked out at 481 nM.

With `O=C1CCC(N2C(=O)c3ccc(Nc4cccc(OS(=O)(=O)N5CCOCC5)c4)cc3C2=O)C(=O)N1` (stereo not drawn) [FL1-5], the EC50 came out at 301 nM. As to `C[C@@H]1C[C@H](C)CN(S(=O)(=O)Oc2cccc(Nc3ccc4c(c3)C(=O)N(C3CCC(=O)NC3=O)C4=O)c2)C1` (stereo partly drawn) [FL1-6], the EC50 came out at 3030 nM. Regarding `CC1(C)CN(S(=O)(=O)Oc2cccc(Nc3ccc4c(c3)C(=O)N(C3CCC(=O)NC3=O)C4=O)c2)CCS1(=O)=O` (stereo not drawn) [FL1-7], the EC50 was determined as 522 nM.

Turning to `CC1(C)CN(S(=O)(=O)Oc2cccc(Nc3ccc4c(c3)C(=O)N(C3CCC(=O)NC3=O)C4=O)c2)CC2(CCOC2)O1` (stereo not drawn) [FL1-8], the EC50 was 930 nM. Regarding `O=C1CCC(N2C(=O)c3ccc(Nc4cccc(OS(=O)(=O)N5CC6(CNC(=O)N6)C5)c4)cc3C2=O)C(=O)N1` (stereo not drawn) [FL1-9], the EC50 worked out at 435 nM. As for `O=C1CCC(N2C(=O)c3ccc(Nc4cccc(OS(=O)(=O)N5C[C@@H](F)[C@H](F)C5)c4)cc3C2=O)C(=O)N1` (stereo partly drawn) [FL1-10], the EC50 was determined as 607 nM.

For `CN(Cc1ncnn1C)S(=O)(=O)Oc1cccc(Nc2ccc3c(c2)C(=O)N(C2CCC(=O)NC2=O)C3=O)c1` (stereo not drawn) [FL1-11], the EC50 is 509 nM. On to `Cc1cn2c(n1)CN(S(=O)(=O)Oc1cccc(Nc3ccc4c(c3)C(=O)N(C3CCC(=O)NC3=O)C4=O)c1)CC2` (stereo not drawn) [FL1-13], for which the 50% effective concentration (EC50) was 482 nM. For the compound `CN(Cc1ccc2[nH]nnc2c1)S(=O)(=O)Oc1cccc(Nc2ccc3c(c2)C(=O)N(C2CCC(=O)NC2=O)C3=O)c1` (stereo not drawn) [FL1-15], the EC50 worked out at 1170 nM. With `O=C1CCC(N2C(=O)c3ccc(Nc4cccc(OS(=O)(=O)N5CCC(c6ccncc6)CC5)c4)cc3C2=O)C(=O)N1` (stereo not drawn) [FL1-16], the EC50 was determined as 682 nM. As for `CC1c2cc(F)ccc2CCN1S(=O)(=O)Oc1cccc(Nc2ccc3c(c2)C(=O)N(C2CCC(=O)NC2=O)C3=O)c1` (stereo not drawn) [FL1-17], the EC50 worked out at 1840 nM. To `CC1c2cccn2CCN1S(=O)(=O)Oc1cccc(Nc2ccc3c(c2)C(=O)N(C2CCC(=O)NC2=O)C3=O)c1` (stereo not drawn) [FL1-19] belongs 898 nM. `CN(Cc1ccc2c(c1)OCO2)S(=O)(=O)Oc1cccc(Nc2ccc3c(c2)C(=O)N(C2CCC(=O)NC2=O)C3=O)c1` (stereo not drawn) [FL1-20]: the 50% effective concentration (EC50) was 1470 nM. As to `CN(C1CC1)S(=O)(=O)Oc1cccc(Nc2ccc3c(c2)C(=O)N(C2CCC(=O)NC2=O)C3=O)c1` (stereo not drawn) [FL1-21], the EC50 was determined as 1050 nM. Take `C[C@@H](O)CN(C)S(=O)(=O)Oc1ccc(Nc2ccc3c(c2)C(=O)N(C2CCC(=O)NC2=O)C3=O)cc1` (stereo partly drawn) [FL2-1]: the EC50 amounted to 445 nM. Turning to `O=C1CCC(N2C(=O)c3ccc(Nc4ccc(OS(=O)(=O)N5CC(CCO)C5)cc4)cc3C2=O)C(=O)N1` (stereo not drawn) [FL2-2], the EC50 worked out at 675 nM. Take `CC(C)(O)C1CCN(S(=O)(=O)Oc2ccc(Nc3ccc4c(c3)C(=O)N(C3CCC(=O)NC3=O)C4=O)cc2)C1` (stereo not drawn) [FL2-4]: the EC50 was determined as 770 nM.

For `O=C1CCC(N2C(=O)c3ccc(Nc4ccc(OS(=O)(=O)N5CCOCC5)cc4)cc3C2=O)C(=O)N1` (stereo not drawn) [FL2-5], the concentration giving a half-maximal response (EC50) came to 458 nM.

Consider `C[C@@H]1C[C@H](C)CN(S(=O)(=O)Oc2ccc(Nc3ccc4c(c3)C(=O)N(C3CCC(=O)NC3=O)C4=O)cc2)C1` (stereo partly drawn) [FL2-6], for which the EC50 stood at 4220 nM. `CC1(C)CN(S(=O)(=O)Oc2ccc(Nc3ccc4c(c3)C(=O)N(C3CCC(=O)NC3=O)C4=O)cc2)CCS1(=O)=O` (stereo not drawn) [FL2-7]: the EC50 worked out at 731 nM.

For the compound `CC1(C)CN(S(=O)(=O)Oc2ccc(Nc3ccc4c(c3)C(=O)N(C3CCC(=O)NC3=O)C4=O)cc2)CC2(CCOC2)O1` (stereo not drawn) [FL2-8], the concentration giving a half-maximal response (EC50) came to 2590 nM. For `O=C1CCC(N2C(=O)c3ccc(Nc4ccc(OS(=O)(=O)N5CC6(CNC(=O)N6)C5)cc4)cc3C2=O)C(=O)N1` (stereo not drawn) [FL2-9], the concentration for a half-maximal effect (EC50) was found to be 414 nM.

Turning to `O=C1CCC(N2C(=O)c3ccc(Nc4ccc(OS(=O)(=O)N5C[C@@H](F)[C@H](F)C5)cc4)cc3C2=O)C(=O)N1` (stereo partly drawn) [FL2-10], the EC50 stood at 1270 nM.

For the compound `CN(Cc1ncnn1C)S(=O)(=O)Oc1ccc(Nc2ccc3c(c2)C(=O)N(C2CCC(=O)NC2=O)C3=O)cc1` (stereo not drawn) [FL2-11], the EC50 came to 617 nM. `O=C1CCC(N2C(=O)c3ccc(Nc4ccc(OS(=O)(=O)N5CCC(c6ccco6)C5)cc4)cc3C2=O)C(=O)N1` (stereo not drawn) [FL2-12]: the 50% effective concentration (EC50) was 4780 nM.

As to `Cc1cn2c(n1)CN(S(=O)(=O)Oc1ccc(Nc3ccc4c(c3)C(=O)N(C3CCC(=O)NC3=O)C4=O)cc1)CC2` (stereo not drawn) [FL2-13], the EC50 was found to be 526 nM.

As to `CN(Cc1ccc2[nH]nnc2c1)S(=O)(=O)Oc1ccc(Nc2ccc3c(c2)C(=O)N(C2CCC(=O)NC2=O)C3=O)cc1` (stereo not drawn) [FL2-15], the EC50 was determined as 1650 nM. `O=C1CCC(N2C(=O)c3ccc(Nc4ccc(OS(=O)(=O)N5CCC(c6ccncc6)CC5)cc4)cc3C2=O)C(=O)N1` (stereo not drawn) [FL2-16]: the EC50 is 1970 nM. To `CC1c2cc(F)ccc2CCN1S(=O)(=O)Oc1ccc(Nc2ccc3c(c2)C(=O)N(C2CCC(=O)NC2=O)C3=O)cc1` (stereo not drawn) [FL2-17] belongs 1290 nM. For `CN(C)c1ncc(CN(C)S(=O)(=O)Oc2ccc(Nc3ccc4c(c3)C(=O)N(C3CCC(=O)NC3=O)C4=O)cc2)cn1` (stereo not drawn) [FL2-18] the value was 872 nM; for `CC1c2cccn2CCN1S(=O)(=O)Oc1ccc(Nc2ccc3c(c2)C(=O)N(C2CCC(=O)NC2=O)C3=O)cc1` (stereo not drawn) [FL2-19], 1050 nM; for `CN(Cc1ccc2c(c1)OCO2)S(=O)(=O)Oc1ccc(Nc2ccc3c(c2)C(=O)N(C2CCC(=O)NC2=O)C3=O)cc1` (stereo not drawn) [FL2-20], 2620 nM. Turning to `CN(C1CC1)S(=O)(=O)Oc1ccc(Nc2ccc3c(c2)C(=O)N(C2CCC(=O)NC2=O)C3=O)cc1` (stereo not drawn) [FL2-21], the concentration for a half-maximal effect (EC50) came out at 1140 nM.

Regarding `CC(O)CN(C)S(=O)(=O)Oc1cccc(Nc2cccc3c2C(=O)N(C2CCC(=O)NC2=O)C3=O)c1` (stereo not drawn) [FL3-1], the EC50 stood at 301 nM. Take `O=C1CCC(N2C(=O)c3cccc(Nc4cccc(OS(=O)(=O)N5CC(CCO)C5)c4)c3C2=O)C(=O)N1` (stereo not drawn) [FL3-2]: the EC50 is 408 nM. Regarding `CC(C)(O)C1CCN(S(=O)(=O)Oc2cccc(Nc3cccc4c3C(=O)N(C3CCC(=O)NC3=O)C4=O)c2)C1` (stereo not drawn) [FL3-4], the EC50 is 446 nM. In the case of `O=C1CCC(N2C(=O)c3cccc(Nc4cccc(OS(=O)(=O)N5CCOCC5)c4)c3C2=O)C(=O)N1` (stereo not drawn) [FL3-5], the EC50 came out at 214 nM.

Take `C[C@@H]1C[C@H](C)CN(S(=O)(=O)Oc2cccc(Nc3cccc4c3C(=O)N(C3CCC(=O)NC3=O)C4=O)c2)C1` (stereo partly drawn) [FL3-6]: the EC50 was 2770 nM. For `CC1(C)CN(S(=O)(=O)Oc2cccc(Nc3cccc4c3C(=O)N(C3CCC(=O)NC3=O)C4=O)c2)CCS1(=O)=O` (stereo not drawn) [FL3-7] the value was 348 nM. For `CC1(C)CN(S(=O)(=O)Oc2cccc(Nc3cccc4c3C(=O)N(C3CCC(=O)NC3=O)C4=O)c2)CC2(CCOC2)O1` (stereo not drawn) [FL3-8], the EC50 stood at 911 nM. As to `O=C1CCC(N2C(=O)c3cccc(Nc4cccc(OS(=O)(=O)N5CC6(CNC(=O)N6)C5)c4)c3C2=O)C(=O)N1` (stereo not drawn) [FL3-9], the EC50 is 330 nM.

In the case of `O=C1CCC(N2C(=O)c3cccc(Nc4cccc(OS(=O)(=O)N5C[C@@H](F)[C@H](F)C5)c4)c3C2=O)C(=O)N1` (stereo partly drawn) [FL3-10], the EC50 came out at 582 nM. With `CN(Cc1ncnn1C)S(=O)(=O)Oc1cccc(Nc2cccc3c2C(=O)N(C2CCC(=O)NC2=O)C3=O)c1` (stereo not drawn) [FL3-11], the EC50 was determined as 449 nM.

As usually defined, the EC50 is the concentration needed to bring the measured effect to its halfway point.
